# According to paper PMC3038857, “Using Nuclear Receptor Activity to Stratify Hepatocarcinogens” (PLoS ONE, 2011):
# Like-named read-outs stand apart in the source and are kept apart here.
# How the values were obtained:
# RXRa (RXRA) = target: T1, RXRa (RXRA) (Homo sapiens, UniProt P19793); assay: NCGC_RXRa_Agonist: GAL4 BLAM Reporter gene assay: RXRa; type: cell-based; details: agonist mode
# T1 sequence (P19793 227-462 limits assumed): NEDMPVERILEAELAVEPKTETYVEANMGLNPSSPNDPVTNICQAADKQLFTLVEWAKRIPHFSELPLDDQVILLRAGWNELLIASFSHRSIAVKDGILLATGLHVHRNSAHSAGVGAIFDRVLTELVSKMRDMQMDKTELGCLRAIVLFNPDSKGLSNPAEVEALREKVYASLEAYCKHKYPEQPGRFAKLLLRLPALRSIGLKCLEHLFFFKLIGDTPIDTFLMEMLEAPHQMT
# Experimental: (§1) These assays measure binding constants and enzyme inhibition values for nuclear receptors. The targets include [drawing 67] , [drawing 68] , [drawing 69] , [drawing 70] , [drawing 71] , [drawing 72] , [drawing 73] , [drawing 74] , [drawing 75] and [drawing 76] . Each of the nuclear receptor targets was measured in agonist mode. Assays were run at the NIH Chemical Genomics Center (Rockville, MD).
# (§2) Cell-based HTS Assays: These assays measuring binding constants and enzyme inhibition values for nuclear receptors. The targets include AR, ER, FXR, LXR, PPARα, PPARδ, PPARγ, RXRα, RXRβ and PXR. Each of the nuclear receptor targets was measured in both agonist and antagonist mode, but the antagonist data is still undergoing analysis due to possible interference between cytotoxicity and assay activity, so antagonist mode data were not used in the present analysis. Assays were run at the NIH Chemical Genomics Center (Rockville, MD) as part of the Tox21 collaboration. […] The R^2 was required to be ≥0.5. Values where only the highest concentration exceeded 50% activity were excluded to eliminate weak or false positives. Detailed description of the methods, data and analysis methods for this dataset will be presented in a separate publication.
# ABCB1 = assay: CLZD_ABCB1: Change in expression of ABCB1 (primary human hepatocytes); type: cell-based; details: 24 hr
# Experimental: (§3) This is a collection of multiplexed gene expression assays focused on Phase I and II xenobiotic metabolizing enzymes and transporters. Human primary cell cultures were treated with chemicals at 5 concentrations (0.004-40 [drawing 42] M) for 6, 24 and 48 hr. Concentration- and time-response profiles of chemicals were measured by the expression of key nuclear receptor target genes, activities of CYP1A enzymes (EROD), and cell morphology. Fourteen gene targets were monitored by quantitative nuclease protection assay including: six representative cytochrome P-450 genes, four hepatic transporters, three Phase II conjugating enzymes, and one endogenous metabolism gene involved in cholesterol synthesis. The target genes associated with nuclear receptor pathways are as follows: [drawing 43] and [drawing 44] with [drawing 45]; [drawing 46] , [drawing 47] , [drawing 48] , [drawing 49] , [drawing 50] and [drawing 51] with [drawing 52]; [drawing 53] , [drawing 54] , [drawing 55] and [drawing 56] with [drawing 57]; [drawing 58] with [drawing 59]; and [drawing 60] with [drawing 61] . Assays were run in primary human hepatocyte cultures by CellzDirect Invitrogen Inc. (Durham, NC), in collaboration with EPA.
# (§4) Multiplexed Gene Expression in Human Primary Hepatocytes: This is a collection of multiplexed gene expression assays focused on Phase I and II metabolic enzymes and transporters. […] Fourteen gene targets were monitored by quantitative nuclease protection assay: six representative cytochrome P450 genes, four hepatic transporters, three Phase II conjugating enzymes, and one endogenous metabolism gene involved in cholesterol synthesis. Cells were exposed at 5 concentrations (0.004-40 µM) for 6, 24 or 48 hr. Gene targets are sentinels for five nuclear receptor signaling pathways: AhR, CAR, PXR, FXR, and PPARα. All gene are associated with nuclear receptor pathways: CYP1A1 and CYP1A2 with AHR; ABCB1, ABCG2, CYP2B6, CYP2C9, CYP2C19 and UGT1A1 with CAR; CYP3A4, GSTA2, SLCO1B1 and SULT2A1 with PXR; HMGCS2 with PPARA; and ABCB11 with FXR. […] Detailed description of the methods, data and analysis methods for this dataset will be presented in a separate publication.
# ABCB11 = assay: CLZD_ABCB11: Change in expression of ABCB11 (primary human hepatocytes); type: cell-based; details: 24 hr
# Experimental: as §3, §4
# CYP1A1 = assay: CLZD_CYP1A1: Change in expression of CYP1A1 (primary human hepatocytes); type: cell-based; details: 24 hr
# Method in brief: (§5)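 Five-point concentration series (0.004-40 µM) applied to primary human hepatocytes; 6/24/48 hr timepoints; transcript quantified by multiplexed nuclease protection.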
# CYP1A2 = assay: CLZD_CYP1A2: Change in expression of CYP1A2 (primary human hepatocytes); type: cell-based; details: 24 hr
# Method in brief: as §5
# CYP2B6 = assay: CLZD_CYP2B6: Change in expression of CYP2B6 (primary human hepatocytes); type: cell-based; details: 24 hr
# Method in brief: as §5
# Rat Liver [1] = details: ref ToxRefDB, cited from earlier work
# Rat Liver [2] = details: ref ToxRefDB, cited from earlier work; remark: listed apart in the source
# Rat Liver [3] = details: ref ToxRefDB, cited from earlier work; remark: listed apart in the source
# CAR (NR1I3) = target: T2, CAR (NR1I3) (Homo sapiens, UniProt Q14994); assay: ATG_PBREM_CIS: Factorial reporter gene assay (HepG2); type: cell-based; design: endogenous in cells; host or cells: HepG2
# T2 sequence (Q14994 1-352): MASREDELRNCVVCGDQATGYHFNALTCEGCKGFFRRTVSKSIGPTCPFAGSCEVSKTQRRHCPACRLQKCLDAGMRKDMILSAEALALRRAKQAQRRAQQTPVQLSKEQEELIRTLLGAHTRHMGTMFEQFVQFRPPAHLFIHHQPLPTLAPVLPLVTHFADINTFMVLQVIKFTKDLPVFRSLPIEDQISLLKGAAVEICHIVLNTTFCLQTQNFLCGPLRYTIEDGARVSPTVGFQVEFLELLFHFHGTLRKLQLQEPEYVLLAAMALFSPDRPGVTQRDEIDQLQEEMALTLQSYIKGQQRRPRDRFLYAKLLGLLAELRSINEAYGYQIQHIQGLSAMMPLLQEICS
# Experimental: A multiple reporter transcription unit (MRTU) library consisting of 48 transcription factor binding sites was transfected into the HepG2 human liver hepatoma cell line. In addition to the cis-acting reporter genes (CIS), a modification of the approach was used to generate a trans-system (TRANS) with a mammalian one-hybrid assay consisting of an additional 25 MRTU library reporting the activity of nuclear receptor super-family members. […] These assays were performed by Attagene Inc. (Morrisville NC) under contract to EPA.
# In addition to the cis-acting reporter genes (CIS), a modification of the approach was used to generate a trans-system (TRANS) with a mammalian one-hybrid assay consisting of an additional 25 MRTU library reporting the activity of nuclear receptor super-family members. […] Chemicals were then tested in the CIS and TRANS assays at seven concentrations starting at the MTC and followed by three-fold serial dilutions. These assays were performed by Attagene Inc. (Morrisville NC) under contract to EPA. Detailed description of the methods, data and analysis methods for this dataset will be presented in a separate publication.
# PXR (NR1I2) [4] = target: T3, PXR (NR1I2) (Homo sapiens, UniProt O75469); assay: ATG_PXRE_CIS: Factorial reporter gene assay (HepG2); type: cell-based; design: endogenous in cells; host or cells: HepG2
# T3 sequence (O75469 1-434): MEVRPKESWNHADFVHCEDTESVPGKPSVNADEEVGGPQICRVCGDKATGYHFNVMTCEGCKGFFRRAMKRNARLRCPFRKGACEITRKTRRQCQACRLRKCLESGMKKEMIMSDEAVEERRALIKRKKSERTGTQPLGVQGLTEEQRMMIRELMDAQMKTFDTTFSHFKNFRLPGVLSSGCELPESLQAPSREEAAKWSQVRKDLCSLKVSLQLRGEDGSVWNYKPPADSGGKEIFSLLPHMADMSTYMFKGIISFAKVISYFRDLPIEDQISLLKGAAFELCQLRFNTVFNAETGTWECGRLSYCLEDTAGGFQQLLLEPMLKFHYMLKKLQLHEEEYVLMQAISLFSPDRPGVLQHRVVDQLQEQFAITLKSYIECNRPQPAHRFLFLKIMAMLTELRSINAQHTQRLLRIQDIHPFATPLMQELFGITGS
# Method in brief: (§6)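 Transfected HepG2 line; multiplexed reporter read-out. PXRE = cis library (48 TF sites); ERRg/FXR/PPARg = trans one-hybrid library (25 units). Dose series of 7, MTC downward by 3x.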
# [5] = target: T4, PPARG (peroxisome proliferator-activated receptor gamma) (Homo sapiens, UniProt P37231); assay: ATG_PPARg_TRANS: Factorial reporter gene assay (HepG2); type: cell-based; details: HepG2 reporter
# T4 construct: expressed in transfected cells; host or cells: HepG2
# T4 sequence (P37231 1-505): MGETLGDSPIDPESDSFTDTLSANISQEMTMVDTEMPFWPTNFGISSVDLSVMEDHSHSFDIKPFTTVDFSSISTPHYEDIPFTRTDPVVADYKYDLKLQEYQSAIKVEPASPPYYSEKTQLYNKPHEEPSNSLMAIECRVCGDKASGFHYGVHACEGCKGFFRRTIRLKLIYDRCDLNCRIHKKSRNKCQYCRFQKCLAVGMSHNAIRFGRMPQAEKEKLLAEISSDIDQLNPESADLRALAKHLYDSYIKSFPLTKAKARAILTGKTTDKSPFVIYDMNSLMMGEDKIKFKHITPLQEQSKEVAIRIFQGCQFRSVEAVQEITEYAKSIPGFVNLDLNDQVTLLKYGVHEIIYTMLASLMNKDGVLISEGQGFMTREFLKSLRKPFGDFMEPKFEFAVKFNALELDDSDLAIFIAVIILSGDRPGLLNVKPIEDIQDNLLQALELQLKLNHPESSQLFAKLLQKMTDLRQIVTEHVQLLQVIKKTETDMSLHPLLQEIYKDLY
# Method in brief: as §6
# CYP3A4 = assay: CLZD_CYP3A4: Change in expression of CYP3A4 (primary human hepatocytes); type: cell-based; details: 24 hr
# Method in brief: as §5
# PXR (NR1I2) [6] = target: T3, PXR (NR1I2); assay: NVS_NR_hPXR: Human PXR Fluormone PXR (SXR) green (cell-free HTS); type: binding
# Method in brief: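 Responses were normalized to same-plate solvent controls as percent of neutral control. AC50 values came from Hill-equation fits of concentration-response curves.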
# PPARg (PPARG) = target: T5, PPARg (PPARG) (Homo sapiens, UniProt P37231); assay: NCGC_PPARg_Agonist: GAL4 BLAM Reporter gene assay: PPARg; type: cell-based; design: expressed in transfected cells; host or cells: HEK293; details: agonist mode
# T5 sequence (P37231 1-505): T4 sequence (P37231 1-505)
# Experimental: as §1, §2
# PXR Human (NR1I2) = target: T6, PXR Human (NR1I2) (Homo sapiens, UniProt O75469); assay: NCGC_PXR_Agonist_human: GAL4 BLAM Reporter gene assay: PXR Human; type: cell-based; details: agonist mode
# T6 sequence (O75469 146-434 limits assumed): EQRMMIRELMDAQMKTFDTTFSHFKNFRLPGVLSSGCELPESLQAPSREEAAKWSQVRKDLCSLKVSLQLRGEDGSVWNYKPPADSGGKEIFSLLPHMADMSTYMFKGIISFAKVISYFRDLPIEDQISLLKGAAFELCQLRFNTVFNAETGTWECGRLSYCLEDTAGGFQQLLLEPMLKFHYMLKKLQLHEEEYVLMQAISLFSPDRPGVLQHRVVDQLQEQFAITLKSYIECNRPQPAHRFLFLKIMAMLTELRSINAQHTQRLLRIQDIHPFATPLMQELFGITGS
# Method in brief: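 Cell-based GAL4 beta-lactamase reporter assays run at NIH Chemical Genomics Center as part of Tox21. Curve fits required R^2 ≥0.5; values where only the highest concentration exceeded 50% activity were excluded.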
SMILES,NCGC_RXRa_Agonist (RXRa (RXRA)),CLZD_ABCB1_24 (ABCB1),CLZD_ABCB11_24 (ABCB11),CLZD_CYP1A1_24 (CYP1A1),CLZD_CYP1A2_24 (CYP1A2),CLZD_CYP2B6_24 (CYP2B6),ATG_PPARg_TRANS [5],"CHR_Rat_Liver_1_AnyLesion (Rat Liver [1]; chronic study, rat liver)","CHR_Rat_Liver_2_PreneoplasticLesion (Rat Liver [2]; chronic study, rat liver)","CHR_Rat_Liver_3_NeoplasticLesion (Rat Liver [3]; chronic study, rat liver)",ATG_PBREM_CIS (CAR (NR1I3); HepG2 reporter),also measured
OCCOc1ccccc1 [r243],4.774,,,,,,,,,,,
C#CCOS(=O)OC1CCCCC1Oc1ccc(C(C)(C)C)cc1 (centres unmarked) [r259],,5.227,4.813,4.821,5.07,5.314,,,,,,"CHR_Rat_Liver_1_AnyLesion (Rat Liver [1]; rat, chronic study): 0; CHR_Rat_Liver_2_PreneoplasticLesion (Rat Liver [2]; rat, chronic study): 0; CHR_Rat_Liver_3_NeoplasticLesion (Rat Liver [3]; rat, chronic study): 0; ATG_PBREM_CIS (CAR (NR1I3); HepG2): 5.854; ATG_PXRE_CIS (PXR (NR1I2) [4]; HepG2): 6.18"
COC(=O)N(OC)c1ccccc1COc1ccn(-c2ccc(Cl)cc2)n1 [r270],,5.275,5.366,6.198,6.309,,6.119,6,0,0,5.658,CLZD_CYP3A4_24 (CYP3A4): 5.335; NVS_NR_hPXR (PXR (NR1I2) [6]): 5.183; ATG_PXRE_CIS (PXR (NR1I2) [4]; HepG2 reporter): 5.62
Fc1ccc(Oc2ccnc3cc(Cl)cc(Cl)c23)cc1 [r277],,,,5.128,5.172,4.999,5.18,0,0,0,,NCGC_PPARg_Agonist (PPARg (PPARG)): 5.174
C=C(C)[C@H]1Cc2c(ccc3c2O[C@@H]2COc4cc(OC)c(OC)cc4[C@@H]2C3=O)O1 [r282],,4.54,5.217,5.398,,5.235,,0,0,0,6.638,NCGC_PXR_Agonist_human (PXR Human (NR1I2)): 4.77
CS(=O)(=O)c1ccc(C(=O)C2C(=O)CCCC2=O)c([N+](=O)[O-])c1 [row 195],4.471,,,,,,,,,,,"CHR_Rat_Liver_1_AnyLesion (Rat Liver [1]; chronic rat study, liver): 6; CHR_Rat_Liver_2_PreneoplasticLesion (Rat Liver [2]; chronic rat study, liver): 0; CHR_Rat_Liver_3_NeoplasticLesion (Rat Liver [3]; chronic rat study, liver): 0"
